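Five compound concentrations were applied to cells in 96-well plates for 48 hours; endpoints were derived by simple linear interpolation of the resulting dose-response curve. GI50 is the concentration that inhibits growth by half. The concentration for full growth arrest is given as TGI.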
Experiments:
Assay in all cases: NCI-60 cell line screen, 48 h
786-0 renal = system: 786-0 renal
A498 renal = system: A498 renal
A549 NSCLC = system: A549 NSCLC
ACHN renal = system: ACHN renal
BT-549 breast = system: BT-549 breast
CAKI-1 renal = system: CAKI-1 renal
CCRF-CEM leukemia = system: CCRF-CEM leukemia
COLO 205 colon = system: COLO 205 colon
DU-145 prostate = system: DU-145 prostate
EKVX NSCLC = system: EKVX NSCLC
HCC-2998 colon = system: HCC-2998 colon
HCT-116 colon = system: HCT-116 colon
HCT-15 colon = system: HCT-15 colon
HL-60(TB) leukemia = system: HL-60(TB) leukemia
HOP-62 NSCLC = system: HOP-62 NSCLC
HOP-92 NSCLC = system: HOP-92 NSCLC
HS 578T breast = system: HS 578T breast
HT29 colon = system: HT29 colon
IGROV1 ovarian = system: IGROV1 ovarian
K-562 leukemia = system: K-562 leukemia
KM12 colon = system: KM12 colon
LOX IMVI melanoma = system: LOX IMVI melanoma
M14 melanoma = system: M14 melanoma
MALME-3M melanoma = system: MALME-3M melanoma
MCF7 breast = system: MCF7 breast
MDA-MB-231 breast = system: MDA-MB-231 breast
MDA-MB-435 = system: MDA-MB-435
MOLT-4 leukemia = system: MOLT-4 leukemia
NCI-H226 lung = system: NCI-H226 lung
NCI-H23 lung = system: NCI-H23 lung
NCI-H460 lung = system: NCI-H460 lung
NCI-H522 lung = system: NCI-H522 lung
NCI/ADR-RES ovarian = system: NCI/ADR-RES ovarian
OVCAR-3 ovarian = system: OVCAR-3 ovarian
OVCAR-4 ovarian = system: OVCAR-4 ovarian
OVCAR-5 ovarian = system: OVCAR-5 ovarian
OVCAR-8 ovarian = system: OVCAR-8 ovarian
PC-3 prostate = system: PC-3 prostate
RPMI-8226 leukemia = system: RPMI-8226 leukemia
RXF 393 renal = system: RXF 393 renal
SF-268 CNS = system: SF-268 CNS
SF-295 CNS = system: SF-295 CNS
SK-MEL-2 melanoma = system: SK-MEL-2 melanoma
SK-MEL-28 melanoma = system: SK-MEL-28 melanoma
SK-MEL-5 melanoma = system: SK-MEL-5 melanoma
SK-OV-3 ovarian = system: SK-OV-3 ovarian
SN12C renal = system: SN12C renal
SNB-19 CNS = system: SNB-19 CNS
SNB-75 CNS = system: SNB-75 CNS
SR leukemia = system: SR leukemia
SW-620 colon = system: SW-620 colon
T-47D breast = system: T-47D breast
TK-10 renal = system: TK-10 renal
U251 CNS = system: U251 CNS
UACC-257 melanoma = system: UACC-257 melanoma
UACC-62 melanoma = system: UACC-62 melanoma
UO-31 renal = system: UO-31 renal
SF-539 CNS = system: SF-539 CNS

What does the source list for `COc1ccc(N2C(=O)C3c4[nH]c5ccc(C)cc5c4C4CCC(c5ccccc5)CC4C3C2=O)cc1` (centres undefined)?
TGI (786-0 renal): > 62.2 µM; TGI (A498 renal): > 68.8 µM; TGI (A549 NSCLC): > 100 µM; TGI (ACHN renal): > 100 µM; TGI (BT-549 breast): > 100 µM; TGI (CAKI-1 renal): > 72.5 µM; TGI (CCRF-CEM leukemia): > 55.5 µM; TGI (COLO 205 colon): > 100 µM; TGI (DU-145 prostate): > 100 µM; TGI (EKVX NSCLC): > 100 µM; TGI (HCC-2998 colon): > 100 µM; TGI (HCT-116 colon): > 100 µM; TGI (HCT-15 colon): > 100 µM; TGI (HL-60(TB) leukemia): > 100 µM; TGI (HOP-62 NSCLC): 26.8 µM; TGI (HOP-92 NSCLC): > 90.2 µM; TGI (HS 578T breast): > 73.4 µM; TGI (HT29 colon): > 100 µM; TGI (IGROV1 ovarian): > 100 µM; TGI (K-562 leukemia): 98.9 µM; TGI (KM12 colon): > 100 µM; TGI (LOX IMVI melanoma): > 100 µM; TGI (M14 melanoma): > 100 µM; TGI (MALME-3M melanoma): > 100 µM; TGI (MCF7 breast): > 100 µM; TGI (MDA-MB-231 breast): > 49.5 µM; TGI (MDA-MB-435): > 100 µM; TGI (MOLT-4 leukemia): > 100 µM; TGI (NCI-H226 lung): > 100 µM; TGI (NCI-H23 lung): > 100 µM; TGI (NCI-H460 lung): > 100 µM; TGI (NCI-H522 lung): > 100 µM; TGI (NCI/ADR-RES ovarian): > 100 µM; TGI (OVCAR-3 ovarian): > 100 µM; TGI (OVCAR-4 ovarian): > 82.3 µM; TGI (OVCAR-5 ovarian): > 100 µM; TGI (OVCAR-8 ovarian): > 83.9 µM; TGI (PC-3 prostate): > 100 µM; TGI (RPMI-8226 leukemia): > 100 µM; TGI (RXF 393 renal): 41 µM; TGI (SF-268 CNS): > 100 µM; TGI (SF-295 CNS): > 100 µM; TGI (SK-MEL-2 melanoma): > 69.4 µM; TGI (SK-MEL-28 melanoma): > 100 µM; TGI (SK-MEL-5 melanoma): > 100 µM; TGI (SK-OV-3 ovarian): > 100 µM; TGI (SN12C renal): > 100 µM; TGI (SNB-19 CNS): > 66.5 µM; TGI (SNB-75 CNS): 12 µM; TGI (SR leukemia): 23.6 µM; TGI (SW-620 colon): > 100 µM; TGI (T-47D breast): > 100 µM; TGI (TK-10 renal): > 75.3 µM; TGI (U251 CNS): 98.6 µM; TGI (UACC-257 melanoma): > 100 µM; TGI (UACC-62 melanoma): > 79.5 µM; TGI (UO-31 renal): > 100 µM

Which results are given for `CCN(CC)CCOc1nc2c3ccc(Cl)cc3nn2c2ccccc12`?
GI50 (786-0 renal): 1.69 µM; TGI (786-0 renal): 3.67 µM; GI50 (A498 renal): 1.62 µM; TGI (A498 renal): 3.05 µM; GI50 (A549 NSCLC): 1.87 µM; TGI (A549 NSCLC): 4.63 µM; GI50 (ACHN renal): 1.32 µM; TGI (ACHN renal): 3.36 µM; GI50 (BT-549 breast): 3.54 µM; TGI (BT-549 breast): 17.5 µM; GI50 (CAKI-1 renal): 1.45 µM; TGI (CAKI-1 renal): 2.97 µM; GI50 (CCRF-CEM leukemia): 2.25 µM; TGI (CCRF-CEM leukemia): 12.8 µM; GI50 (COLO 205 colon): 1.55 µM; TGI (COLO 205 colon): 4.55 µM; GI50 (DU-145 prostate): 2.4 µM; TGI (DU-145 prostate): 6.07 µM; GI50 (EKVX NSCLC): 2.62 µM; TGI (EKVX NSCLC): 9.71 µM; GI50 (HCC-2998 colon): 1.62 µM; TGI (HCC-2998 colon): 3.43 µM; GI50 (HCT-116 colon): 1.4 µM; TGI (HCT-116 colon): 3.53 µM; GI50 (HL-60(TB) leukemia): 2.06 µM; TGI (HL-60(TB) leukemia): 5.64 µM; GI50 (HOP-62 NSCLC): 2.38 µM; TGI (HOP-62 NSCLC): 12.5 µM; GI50 (HOP-92 NSCLC): 1.4 µM; TGI (HOP-92 NSCLC): 6.41 µM; GI50 (HS 578T breast): 2.59 µM; TGI (HS 578T breast): 11.3 µM; GI50 (HT29 colon): 2.04 µM; TGI (HT29 colon): 9.9 µM; GI50 (IGROV1 ovarian): 1.54 µM; TGI (IGROV1 ovarian): 4.62 µM; GI50 (K-562 leukemia): 2.73 µM; TGI (K-562 leukemia): > 100 µM; GI50 (KM12 colon): 1.96 µM; TGI (KM12 colon): 4.69 µM; GI50 (LOX IMVI melanoma): 1.44 µM; TGI (LOX IMVI melanoma): 3.05 µM; GI50 (M14 melanoma): 1.76 µM; TGI (M14 melanoma): 3.95 µM; GI50 (MALME-3M melanoma): 1.6 µM; TGI (MALME-3M melanoma): 3.22 µM; GI50 (MCF7 breast): 1.96 µM; TGI (MCF7 breast): 6.08 µM; GI50 (MDA-MB-231 breast): 2.02 µM; TGI (MDA-MB-231 breast): 7.03 µM; GI50 (MDA-MB-435): 1.15 µM; TGI (MDA-MB-435): 2.79 µM; GI50 (MOLT-4 leukemia): 2.77 µM; TGI (MOLT-4 leukemia): > 100 µM; GI50 (NCI-H226 lung): 2.06 µM; TGI (NCI-H226 lung): 10.2 µM; GI50 (NCI-H23 lung): 1.81 µM; TGI (NCI-H23 lung): 4.9 µM; GI50 (NCI-H460 lung): 2.61 µM; TGI (NCI-H460 lung): 7.5 µM; GI50 (NCI-H522 lung): 2.37 µM; TGI (NCI-H522 lung): 6.43 µM; GI50 (NCI/ADR-RES ovarian): 1.89 µM; TGI (NCI/ADR-RES ovarian): 8.24 µM; GI50 (OVCAR-3 ovarian): 2.86 µM; TGI (OVCAR-3 ovarian): 9.42 µM; GI50 (OVCAR-4 ovarian): 2.78 µM; TGI (OVCAR-4 ovarian): 9.06 µM; GI50 (OVCAR-5 ovarian): 2.67 µM; TGI (OVCAR-5 ovarian): 10.3 µM; GI50 (OVCAR-8 ovarian): 2.64 µM; TGI (OVCAR-8 ovarian): 55.9 µM; GI50 (PC-3 prostate): 2.29 µM; TGI (PC-3 prostate): 9.94 µM; GI50 (RXF 393 renal): 1.75 µM; TGI (RXF 393 renal): 3.94 µM; GI50 (SF-268 CNS): 2.89 µM; TGI (SF-268 CNS): 11 µM; GI50 (SF-295 CNS): 1.79 µM; TGI (SF-295 CNS): 4.18 µM; GI50 (SF-539 CNS): 1.71 µM; TGI (SF-539 CNS): 3.84 µM; GI50 (SK-MEL-2 melanoma): 2.16 µM; TGI (SK-MEL-2 melanoma): 4.94 µM; GI50 (SK-MEL-28 melanoma): 1.89 µM; TGI (SK-MEL-28 melanoma): 3.57 µM; GI50 (SK-MEL-5 melanoma): 1.73 µM; TGI (SK-MEL-5 melanoma): 3.12 µM; GI50 (SK-OV-3 ovarian): 2.49 µM; TGI (SK-OV-3 ovarian): 21.4 µM; GI50 (SN12C renal): 2.21 µM; TGI (SN12C renal): 10.1 µM; GI50 (SNB-19 CNS): 3.28 µM; TGI (SNB-19 CNS): 36.1 µM; GI50 (SNB-75 CNS): 1.58 µM; TGI (SNB-75 CNS): 8.35 µM; GI50 (SR leukemia): 2.12 µM; TGI (SR leukemia): 15.8 µM; GI50 (SW-620 colon): 1.42 µM; TGI (SW-620 colon): 4.13 µM; GI50 (T-47D breast): 3.51 µM; TGI (T-47D breast): 18.8 µM; GI50 (TK-10 renal): 3.88 µM; TGI (TK-10 renal): 16.1 µM; GI50 (U251 CNS): 2.11 µM; TGI (U251 CNS): 5.4 µM; GI50 (UACC-257 melanoma): 1.89 µM; TGI (UACC-257 melanoma): 4.02 µM; GI50 (UACC-62 melanoma): 1.79 µM; TGI (UACC-62 melanoma): 3.7 µM; GI50 (UO-31 renal): 1.07 µM; TGI (UO-31 renal): 2.66 µM
